From patent US6747023B1 (Daiichi Pharmaceutical Co., Ltd., priority 1998, dated 2004)
Structures can show the parent of a compound that is named as a salt. Where two headings read alike, the source gives them in different places.

Columns and labels:
human FXa = biological target: T1, human FXa (Homo sapiens, UniProt P00742); test: Measurement of FXa inhibitory action (IC50); format: biochemical
T1 construct: purchased Cosmobio-ERL HFXa-1011
Experimental: Measurement of FXa Inhibitory Action (IC50)
From the below-described equation, an inhibitory ratio % of each sample was determined.
(§1) Inhibitory ratio (%)=(1−OD of sample÷OD of control)×100

human thrombin = biological target: T2, human thrombin (Homo sapiens, UniProt P00734); test: Measurement of thrombin inhibitory action (IC50); format: biochemical
T2 construct: carries out limited proteolysis of prothrombin, thereby forming thrombin; purchased Sigma Chemical
Experimental: Measurement of Thrombin Inhibitory Action (IC50)
In a 96-well microtiter plate, 10 μl of a sample solution, 40 μl of a 100 mM tris.200 mM sodium chloride 0.2% BSA (pH: 7.4) buffer and 10 μl of 4 U/ml human thrombin (Sigma Chemical, dissolved in and diluted with a measuring buffer) were poured in portions, followed by the addition of 40 μl of 500 μM S2266 (product of Chromogenix). An increase (mOD/min) in the absorbance at 405 nm was measured at room temperature. From the below-described equation, an inhibitory ratio % of each sample was determined. On a logarithmic probability paper, the final concentration of the sample and inhibitory ratio % were plotted along the abscissa and the ordinate, respectively, whereby a 50% inhibitory concentration (IC50) was found.
as §1

[1] = 0.05 U/ml human FXa, substrate S2222, absorbance at 405 nm, room temperature, read-out: Concentration (nM) of the sample at which 50% of Fxa activity is inhibited
[2] = 4 U/ml human thrombin, substrate S2266, absorbance at 405 nm, room temperature, read-out: Concentration (nM) of the sample at which 50% of thrombin activity is inhibited
[3] = same test as Tables 1-6, read-out: FXa 50% inhibitory concentrations

T1 sequence (P00742 235-488 limits assumed): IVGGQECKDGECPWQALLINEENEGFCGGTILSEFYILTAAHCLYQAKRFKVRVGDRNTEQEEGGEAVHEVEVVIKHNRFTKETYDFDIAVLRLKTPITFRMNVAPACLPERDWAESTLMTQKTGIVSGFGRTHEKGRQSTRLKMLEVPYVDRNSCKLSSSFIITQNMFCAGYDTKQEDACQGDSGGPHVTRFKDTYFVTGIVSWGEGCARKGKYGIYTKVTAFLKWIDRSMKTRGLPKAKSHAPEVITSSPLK
T1 sequence (P00742 41-179 partner limits assumed): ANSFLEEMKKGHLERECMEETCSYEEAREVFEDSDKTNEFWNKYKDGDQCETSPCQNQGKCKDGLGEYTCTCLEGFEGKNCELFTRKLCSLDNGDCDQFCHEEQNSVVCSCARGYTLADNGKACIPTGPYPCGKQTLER

Row | IC50 (human FXa; [1]) [nM] | IC50 (human thrombin; [2]) [nM] | SMILES | also measured
1 | – | – | CN1Cc2ccc(C(=O)N3CCN(S(=O)(=O)c4cc5cc(Cl)ccc5[nH]4)CC3)cc2C1 (as salt: salt) [Example B-190, 1-[(5-Chloroindol-2-yl)sulfonyl]-4-[(2-methylisoindolin-5-yl)carbonyl]piperazine] | melting point: 175 to 180 °C (dec.)
2 | 27 | 2220 | C#Cc1ccc2[nH]c(S(=O)(=O)N3CCN(C(=O)c4ccc(-c5ccncc5)cc4)CC3)cc2c1 [Example A-103, 1-[(5-Ethynylindol-2-yl)sulfonyl]-4-[4-(pyridin-4-yl)benzoyl]piperazine] | –
3 | – | 19000 | O=C(c1ncc(-c2ccncc2)cn1)N1CCN(S(=O)(=O)c2cc3cc(Cl)ccc3[nH]2)CC1 [Example A-105, 1-[(5-Chloroindol-2-yl)sulfonyl]-4-[[5-(pyridin-4-yl)pyrimidin-2-yl]carbonyl]piperazine] | –
4 | 6.9 | 1550 | O=C(c1ccc(-c2cccc[n+]2[O-])cc1)N1CCN(S(=O)(=O)c2cc3cc(Cl)ccc3[nH]2)CC1 [Example A-109, 2-[4-[[4-[(5-Chloroindol-2-yl)sulfonyl]piperazin-1-yl]carbonyl]phenyl]pyridine N-oxide] | –
5 | 10.5 | 4100 | O=C(c1ccc(-c2cccc[n+]2[O-])cc1)N1CCN(S(=O)(=O)c2cc3ccc(Cl)cc3s2)CC1 [Example A-117, 2-[4-[[4-[(6-Chlorobenzo[b]thien-2-yl)sulfonyl]piperazin-1-yl]carbonyl]phenyl]pyridine N-oxide] | –
6 | 23 | 16000 | O=C(c1ncc(-c2ccncc2)cn1)N1CCN(S(=O)(=O)c2ccc3cc(Cl)ccc3c2)CC1 [Example A-123, 1-[(6-Chloronaphthalen-2-yl)sulfonyl]-4-[[5-(pyridin-4-yl)pyrimidin-2-yl]carbonyl]piperazine] | –
7 | 5.6 | > 100000 | O=C(c1ncc(-c2ccncc2)cn1)N1CCN(S(=O)(=O)c2cc3ccc(Cl)cc3s2)CC1 [Example A-132, 1-[(6-Chlorobenzothiophen-2-yl)sulfonyl]-4-[[5-(pyridin-4-yl)pyrimidin-2-yl]carbonyl]piperazine] | –
8 | 10 | 7700 | O=C(c1ncc(-c2cc[n+]([O-])cc2)cn1)N1CCN(S(=O)(=O)c2cc3ccc(Cl)cc3s2)CC1 [Example A-133, 4-[2-[[4-[(6-Chlorobenzo[b]thien-2-yl)sulfonyl]piperazin-1-yl]carbonyl]pyrimidin-5-yl]pyridine N-oxide] | –
9 | 4.6 | 10200 | O=C(c1ncc(-c2cc[n+]([O-])cc2)cn1)N1CCN(S(=O)(=O)c2cc3cc(Cl)ccc3[nH]2)CC1 [Example A-134, 4-[2-[[4-[(5-Chloroindol-2-yl)sulfonyl]piperazin-1-yl]carbonyl]pyrimidin-5-yl]pyridine N-oxide] | –
10 | 60 | 4100 | O=C(c1cnc(-c2ccncc2)cn1)N1CCN(S(=O)(=O)c2ccc3cc(Cl)ccc3c2)CC1 [Example A-137, 1-[(6-Chloronaphthalen-2-yl)sulfonyl]-4-[[5-(pyridin-4-yl)pyrazin-2-yl]carbonyl]piperazine] | –
11 | 5 | 5900 | O=C(c1cnc(-c2ccncc2)cn1)N1CCN(S(=O)(=O)c2cc3cc(Cl)ccc3[nH]2)CC1 [Example A-138, 1-[(5-Chloroindol-2-yl)sulfonyl]-4-[[5-(pyridin-4-yl)pyrazin-2-yl]carbonyl]piperazine] | –
12 | 6.8 | 1370 | O=C(c1cnc(-c2cc[n+]([O-])cc2)cn1)N1CCN(S(=O)(=O)c2cc3cc(Cl)ccc3[nH]2)CC1 [Example A-140, 4-[5-[[4-[(5-Chloroindol-2-yl)sulfonyl]piperazin-1-yl]carbonyl]pyrazin-2-yl]pyridine N-oxide] | –
13 | 15 | > 50000 | C#Cc1ccc2cc(S(=O)(=O)N3CCN(C(=O)c4ncc(-c5ccncc5)cn4)CC3)sc2c1 [Example A-216, 4-[[5-(Pyridin-4-yl)pyrimidin-2-yl]carbonyl]-1-[(6-ethynylbenzo[b]thien-2-yl)sulfonyl]piperazine] | –
14 | 7.6 | – | CCC1CN(S(=O)(=O)c2cc3cc(Cl)ccc3[nH]2)CCN1C(=O)c1ncc(-c2cccc[n+]2[O-])cn1 (centres unmarked) [Example A-224, 2-[2-[[4-[(5-Chloroindol-2-yl)sulfonyl]-2-ethylpiperazin-1-yl]carbonyl]pyrimidin-5-yl]pyridine N-oxide] | –
15 | 1.6 | – | Cc1cc(-c2cnc(C(=O)N3CCN(S(=O)(=O)c4cc5cc(Cl)ccc5[nH]4)CC3)s2)cc[n+]1[O-] [Example A-229, 4-[2-[[4-[(5-Chloroindol-2-yl)sulfonyl]piperazin-1-yl]carbonyl]thiazol-5-yl]-2-methylpyridine N-oxide] | –
16 | 2.3 | – | C#Cc1ccc2[nH]c(S(=O)(=O)N3CCN(C(=O)c4ncc(-c5cc[n+]([O-])cc5)s4)CC3)cc2c1 [Example A-231, 4-[2-[[4-[(5-Ethynylindol-2-yl)sulfonyl]piperazin-1-yl]carbonyl]thiazol-5-yl]pyridine N-oxide] | –
17 | 3.5 | – | O=C(c1ncc(-c2cc[n+]([O-])cc2)s1)N1CCN(S(=O)(=O)c2cc3ccc(Cl)cc3s2)CC1 [Example A-239, 4-[2-[[4-[(6-Chlorobenzo[b]thien-2-yl)sulfonyl]piperazin-1-yl]carbonyl]thiazol-5-yl]pyridine N-oxide] | –
18 | 3.5 | – | O=C(CC1CN(S(=O)(=O)c2cc3cc(Cl)ccc3[nH]2)CCN1C(=O)C1CC=C(c2cc[n+]([O-])cc2)CC1)N1CCCCC1 (centres unmarked) [Example A-259, 4-[4-[[4-[(5-Chloroindol-2-yl)sulfonyl]-2-[(piperidin-1-yl)carbonylmethyl]piperazin-1-yl]carbonyl]-1-cyclohexen-1-yl]pyridine N-oxide] | –
19 | 10 | – | CN(C)C(=O)C[C@@H]1CN(S(=O)(=O)c2cc3ccc(Cl)cc3s2)C[C@H](CC(=O)N(C)C)N1C(=O)c1ncc(-c2cc[n+]([O-])cc2)cn1 [Example A-279, 4-[2-[[2,cis-6-Bis[(N,N-dimethylcarbamoyl)methyl]-4-[(6-chlorobenzo[b]thien-2-yl)sulfonyl]piperazin-1-yl]carbonyl]pyrimidin-5-yl]pyridine N-oxide] | –
20 | 1.9 | – | O=C(CC1CN(S(=O)(=O)c2cc3ccc(Cl)cc3s2)CCN1C(=O)c1ncc(-c2cccc[n+]2[O-])cn1)NC1CC1 (centres unmarked) [Example A-293, 2-[2-[[4-[(6-Chlorobenzo[b]thien-2-yl)sulfonyl]-2-[(N-cyclopropylcarbamoyl)methyl]piperazin-1-yl]carbonyl]pyrimidin-5-yl]pyridine N-oxide] | –
21 | 0.7 | – | O=C(CC1CN(S(=O)(=O)c2cc3cc(Cl)ccc3[nH]2)CCN1C(=O)c1ncc(-c2cc[n+]([O-])cc2)s1)N1CCCC1 (centres unmarked) [Example A-298, 4-[2-[[4-[(5-Chloroidol-2-yl)sulfonyl]-2-[(pyrrolidin-1-yl)carbonylmethyl]piperazin-1-yl]carbonyl]thiazol-5-yl]pyridine N-oxide] | –
22 | – | – | CN1CCc2nc(C(=O)N3CCN(S(=O)(=O)c4cc5cc(Cl)ccc5[nH]4)CC3)sc2C1 [Example B-54, hydrochloride] | IC50 (human FXa; [3]): 5 nM; IC50 (human thrombin; same test as Tables 7-8, read-out: thrombin 50% inhibitory concentration): 1050 nM
23 | – | – | C[n+]1ccc2nc(C(=O)N3CCN(S(=O)(=O)c4ccc5cc(Cl)ccc5c4)CC3)sc2c1 [Example B-61] | IC50 (human FXa; [3]): 30 nM
24 | – | – | CN1CCc2nc(C(=O)N3CCN(S(=O)(=O)c4ccc5cc(Cl)ccc5c4)CC3CC(=O)N3CCOCC3)sc2C1 (centres unmarked) [Example B-63, 4-[(6-Chloronaphthalen-2-yl)sulfonyl]-1-[(6-methyl-4,5,6,7-tetrahydrothiazolo[5,4-c]pyridin-2-yl)carbonyl]-2-[[(morpholin-4-yl)carbonyl]methyl]piperazine hydrochloride] | IC50 (human FXa; [3]): 12.5 nM
25 | – | – | CN1CCc2nc(C(=O)N3CCN(S(=O)(=O)c4cc5cc(Cl)ccc5[nH]4)CC3CC(=O)N3CCOCC3)sc2C1 (centres unmarked) [Example B-99, hydrochloride] | IC50 (human FXa; [3]): 1.7 nM
26 | – | – | O=C(c1ccc2c(c1)CNC2)N1CCN(S(=O)(=O)c2cc3cc(Cl)ccc3[nH]2)CC1 [Example B-189, 1-[(5-Chloroindol-2-yl)sulfonyl]-4-[(isoindolin-5-yl)carbonyl]piperazine] | melting point: 196 to 199 °C (dec.)
